Assay results reported in PubChem BioAssay AID292 (DTP/NCI, 2004).
Values joined by “and” are separate entries in the source; they are usually repeats but may differ in a detail not shown here. Equal entries are not always repeated. Inconclusive results and toxic doses are left out.

System: B6C3F1 mice, ip Sarcoma M5076, median survival T/C
Assay: NCI In Vivo Anticancer Drug Screen. Data for tumor model Sarcoma M5076 (intraperitoneal) in B6C3F1 mice
Conditions: endpoint: median survival time, higher = longer survival
Procedure: The antitumor activity of compounds was measured in mice bearing transplantable tumors. Survival or tumor size were measured and the results are expressed as the measurement made in the treated group (T) divided by the measurement made in the vehicle treated control group (C). The tumor model used in this assay is Sarcoma M5076 (intraperitoneal) in B6C3F1 mice

[1] = dose: 25.0 mg/kg/injection, schedule: Q04DX004 (ip), vehicle: saline with Tween-80
[2] = dose: 100.0 mg/kg/injection, schedule: Q04DX004 (ip), vehicle: saline with Tween-80
[3] = dose: 200.0 mg/kg/injection, schedule: Q04DX004 (ip), vehicle: saline with Tween-80
[4] = dose: 400.0 mg/kg/injection, schedule: Q04DX004 (ip), vehicle: saline with Tween-80
[5] = dose: 50.0 mg/kg/injection, schedule: Q04DX004 (ip), vehicle: saline with Tween-80
[6] = dose: 50.0 mg/kg/injection, schedule: Q04DX004 (ip), vehicle: Klucel (hydroxypropylcellulose) (HPC)
[7] = dose: 100.0 mg/kg/injection, schedule: Q04DX004 (ip), vehicle: Klucel (hydroxypropylcellulose) (HPC)
[8] = dose: 200.0 mg/kg/injection, schedule: Q04DX004 (ip), vehicle: Klucel (hydroxypropylcellulose) (HPC)
[9] = dose: 400.0 mg/kg/injection, schedule: Q04DX004 (ip), vehicle: Klucel (hydroxypropylcellulose) (HPC)

## C1CCC(NC2CCCCC2)CC1
dose: 75.0 mg/kg/injection, schedule: Q04DX004 (ip), vehicle: saline
  T/C: 103 % of control
dose: 150.0 mg/kg/injection, schedule: Q04DX004 (ip), vehicle: saline
  T/C: 103 % of control
dose: 300.0 mg/kg/injection, schedule: Q04DX004 (ip), vehicle: saline
  T/C: 100 % of control

## CN(C)N=Nc1ccc(C(N)=O)cc1
[1]
  T/C: 120 % of control and 121 % of control
[2]
  T/C: 151 % of control
[3]
  T/C: 163 % of control
[4]
  T/C: 109 % of control

## O=[N+]([O-])c1ccc(C=C2C=CN(CCO)C=C2)cc1
[1]
  T/C: 115 % of control
[5]
  T/C: 115 % of control
[2]
  T/C: 106 % of control

## CCOC1NC(=O)Oc2ccccc21 (configuration not stated)
[6]
  T/C: 107 % of control
[7]
  T/C: 100 % of control
[8]
  T/C: 99 % of control
[9]
  T/C: 121 % of control

## O=S(=O)(c1cccc(N=C=S)c1)c1cccc(N=C=S)c1
dose: 12.5 mg/kg/injection, schedule: Q04DX004 (ip), vehicle: Klucel (hydroxypropylcellulose) (HPC)
  T/C: 99 % of control
dose: 25.0 mg/kg/injection, schedule: Q04DX004 (ip), vehicle: Klucel (hydroxypropylcellulose) (HPC)
  T/C: 94 % of control
[6]
  T/C: 103 % of control
[7]
  T/C: 99 % of control

## Nc1ccn([C@@H]2C=C(CO)[C@@H](O)[C@H]2O)c(=O)n1
dose: 0.13 mg/kg/injection, schedule: Q01DX013 (ip), vehicle: saline
  T/C: 96 % of control
dose: 0.25 mg/kg/injection, schedule: Q01DX013 (ip), vehicle: saline
  T/C: 104 % of control
dose: 0.5 mg/kg/injection, schedule: Q01DX013 (ip), vehicle: saline
  T/C: 105 % of control

## COc1cc(N2C(=O)C(=O)C(C(C)=O)C2=O)c(OC)cc1Cl (configuration not stated)
[6]
  T/C: 102 % of control
[7]
  T/C: 102 % of control
[8]
  T/C: 101 % of control
[9]
  T/C: 102 % of control

## Nc1nc([Se]c2nc(N)nc3c2ncn3C2OC(CO)C(O)C2O)c2ncn(C3OC(CO)C(O)C3O)c2n1 (configuration not stated)
dose: 25.0 mg/kg/injection, schedule: Q04DX004 (ip), vehicle: distilled water + Tween-80
  T/C: 123 % of control
dose: 100.0 mg/kg/injection, schedule: Q04DX004 (ip), vehicle: distilled water + Tween-80
  T/C: 159 % of control
dose: 200.0 mg/kg/injection, schedule: Q04DX004 (ip), vehicle: distilled water + Tween-80
  T/C: 157 % of control and 177 % of control

## COc1ccc(C(C)c2cc3c(cc2OC)OCO3)cc1 (configuration not stated)
[5]
  T/C: 115 % of control
[3]
  T/C: 110 % of control

## O=C(O)Cc1cccc2c(=O)cc(-c3ccccc3)oc12
dose: 6.25 mg/kg/injection, schedule: Q04DX004 (ip), vehicle: suspension in saline
  T/C: 98 % of control
dose: 12.5 mg/kg/injection, schedule: Q04DX004 (ip), vehicle: suspension in saline
  T/C: 95 % of control
dose: 25.0 mg/kg/injection, schedule: Q04DX004 (ip), vehicle: suspension in saline
  T/C: 102 % of control
dose: 50.0 mg/kg/injection, schedule: Q04DX004 (ip), vehicle: suspension in saline
  T/C: 100 % of control
dose: 100.0 mg/kg/injection, schedule: Q04DX004 (ip), vehicle: suspension in saline
  T/C: 102 % of control

## O=C1C=CC(O)N1 (configuration not stated)
dose: 10.0 mg/kg/injection, schedule: Q01DX009 (ip), vehicle: water
  T/C: 95 % of control
dose: 20.0 mg/kg/injection, schedule: Q01DX009 (ip), vehicle: water
  T/C: 101 % of control
dose: 40.0 mg/kg/injection, schedule: Q01DX009 (ip), vehicle: water
  T/C: 101 % of control
dose: 80.0 mg/kg/injection, schedule: Q01DX009 (ip), vehicle: water
  T/C: 101 % of control
dose: 160.0 mg/kg/injection, schedule: Q01DX009 (ip), vehicle: water
  T/C: 94 % of control

## C=C1COC(O)(C2OCOC(C3CC(=O)NC(=O)C3)C2O)C1C (configuration not stated)
dose: 4.0 micrograms/kg/injection, schedule: Q04DX004 (ip), vehicle: water
  T/C: 112 % of control
dose: 8.0 micrograms/kg/injection, schedule: Q04DX004 (ip), vehicle: water
  T/C: 117 % of control
dose: 13.8 micrograms/kg/injection, schedule: Q04DX004 (ip), vehicle: water
  T/C: 105 % of control
dose: 16.0 micrograms/kg/injection, schedule: Q04DX004 (ip), vehicle: water
  T/C: 117 % of control
dose: 23.04 micrograms/kg/injection, schedule: Q04DX004 (ip), vehicle: water
  T/C: 116 % of control
dose: 38.0 micrograms/kg/injection, schedule: Q04DX004 (ip), vehicle: water
  T/C: 162 % of control
dose: 38.4 micrograms/kg/injection, schedule: Q04DX004 (ip), vehicle: water
  T/C: 110 % of control

## [NH-]C(CCC(N)=O)C(=O)O.[NH-]C(CCC(N)=O)C(=O)O.[Zn+2] (configuration not stated)
dose: 12.5 mg/kg/injection, schedule: Q04DX004 (ip), vehicle: saline with Tween-80
  T/C: 103 % of control
[1]
  T/C: 98 % of control
[5]
  T/C: 96 % of control

## COC(C(=O)C(O)C(C)O)C1CC2C=C3C=C(OC4CC(OC5CC(O)C(OC)C(C)O5)C(OC(C)=O)C(C)O4)C(C)C(=O)C3=C(O)C2=C(O)C1OC1CC(OC2CC(OC3CC(C)(O)C(O)C(C)O3)C(O)C(C)O2)C(O)C(C)O1 (configuration not stated)
dose: 1.0 mg/kg/injection, schedule: Q04DX004 (ip), vehicle: saline with Tween-80
  T/C: 104 % of control
dose: 2.0 mg/kg/injection, schedule: Q04DX004 (ip), vehicle: saline with Tween-80
  T/C: 112 % of control
dose: 4.0 mg/kg/injection, schedule: Q04DX004 (ip), vehicle: saline with Tween-80
  T/C: 107 % of control and 112 % of control
dose: 8.0 mg/kg/injection, schedule: Q04DX004 (ip), vehicle: saline with Tween-80
  T/C: 104 % of control and 108 % of control
dose: 16.0 mg/kg/injection, schedule: Q04DX004 (ip), vehicle: saline with Tween-80
  T/C: 107 % of control and 111 % of control
dose: 32.0 mg/kg/injection, schedule: Q04DX004 (ip), vehicle: saline with Tween-80
  T/C: 117 % of control
dose: 64.0 mg/kg/injection, schedule: Q04DX004 (ip), vehicle: saline with Tween-80
  T/C: 115 % of control

## O=c1[nH]c(=O)n(C2CC(O)C(CO)O2)cc1I (configuration not stated)
[2]
  T/C: 103 % of control and 117 % of control
[3]
  T/C: 108 % of control and 118 % of control
[4]
  T/C: 122 % of control
dose: 800.0 mg/kg/injection, schedule: Q04DX004 (ip), vehicle: saline with Tween-80
  T/C: 158 % of control
dose: 1600.0 mg/kg/injection, schedule: Q04DX004 (ip), vehicle: saline with Tween-80
  T/C: 243 % of control

## Cc1cc2c(=O)cc(-c3ccccc3)oc2c(C(=O)O)c1C
dose: 31.25 mg/kg/injection, schedule: Q04DX004 (ip), vehicle: saline with Tween-80
  T/C: 98 % of control
dose: 62.5 mg/kg/injection, schedule: Q04DX004 (ip), vehicle: saline with Tween-80
  T/C: 93 % of control
dose: 125.0 mg/kg/injection, schedule: Q04DX004 (ip), vehicle: saline with Tween-80
  T/C: 113 % of control

## CCCCNc1ccc2nnc(C)n2n1
dose: 25.0 mg/kg/injection, schedule: Q04DX004 (ip), vehicle: DMSO
  T/C: 99 % of control
dose: 50.0 mg/kg/injection, schedule: Q04DX004 (ip), vehicle: DMSO
  T/C: 92 % of control and 100 % of control
dose: 100.0 mg/kg/injection, schedule: Q04DX004 (ip), vehicle: DMSO
  T/C: 94 % of control and 96 % of control
dose: 200.0 mg/kg/injection, schedule: Q04DX004 (ip), vehicle: DMSO
  T/C: 92 % of control and 101 % of control

## O=c1[nH]cc(F)c(=O)[nH]1
dose: 12.5 mg/kg/injection, schedule: Q04DX004 (ip), vehicle: saline
  T/C: 104 % of control and 122 % of control
dose: 25.0 mg/kg/injection, schedule: Q04DX004 (ip), vehicle: saline
  T/C: 111 % of control and 120 % of control

## COc1cc2c(c3c1/c(=N/N(C)C)c1ccccc1n3C)C=CC(C)(C)O2
[1]
  T/C: 110 % of control
[5]
  T/C: 105 % of control
[2]
  T/C: 110 % of control
[3]
  T/C: 110 % of control

## CCC(CC)COC(=O)c1ccccc1C(=O)OCC(CC)CC
dose: 75.0 mg/kg/injection, schedule: Q04DX004 (ip), vehicle: saline with Tween-80
  T/C: 102 % of control
dose: 150.0 mg/kg/injection, schedule: Q04DX004 (ip), vehicle: saline with Tween-80
  T/C: 102 % of control
dose: 300.0 mg/kg/injection, schedule: Q04DX004 (ip), vehicle: saline with Tween-80
  T/C: 104 % of control
dose: 600.0 mg/kg/injection, schedule: Q04DX004 (ip), vehicle: saline with Tween-80
  T/C: 106 % of control
dose: 1200.0 mg/kg/injection, schedule: Q04DX004 (ip), vehicle: saline with Tween-80
  T/C: 114 % of control

## COC1C(CO)OC(n2cnc3c(=S)nc(N)[nH]c32)C1O (configuration not stated)
[6]
  T/C: 93 % of control
[7]
  T/C: 100 % of control
[8]
  T/C: 105 % of control

## O=S1(=O)C(c2cccc(F)c2)=C(O)c2cc3ccccc3nc21
dose: 26.57 mg/kg/injection, schedule: Q04DX004 (ip), vehicle: saline with Tween-80
  T/C: 100 % of control
dose: 53.13 mg/kg/injection, schedule: Q04DX004 (ip), vehicle: saline with Tween-80
  T/C: 92 % of control
dose: 106.25 mg/kg/injection, schedule: Q04DX004 (ip), vehicle: saline with Tween-80
  T/C: 96 % of control
dose: 212.5 mg/kg/injection, schedule: Q04DX004 (ip), vehicle: saline with Tween-80
  T/C: 92 % of control
